Source: patent publication US5856189A, “Cell culture model for drug bioavailability” (priority 1997, dated 1999)

Assays:
[1] = tested on: CYP3A7 mRNA (Caco-2 cells); test: RT-PCR of CYP3A7 mRNA in treated Caco-2 cells; details: 0.05-1.0 μM, two weeks
Method: (§1) cDNA was prepared from the total RNA using reverse transcriptase from avian myeloblastosis virus (Seikagaku America). […] The polymerase chain reaction was performed on 1 μL of a 1:10 dilution in water of a prepared cDNA.
(§2) Each thermal cycle consisted of 95° C. for 1 min, then 65° C. for 1 min 15 sec; after completing all cycles, a 10 min extension step at 65° C. was performed.
(§3) PCR products were electrophoresed on agarose gels and stained with ethidium bromide. […] PCR products were judged to be of the size appropriate for amplification of the specific cDNA by comparison with molecular weight standards included on each gel.
(§4) The numbers of PCR cycles were as follows: CYP3A4, 36; CYP3A5, 33; CYP3A7, 39; mdr-1, 34; IFABP, 32; and villin, 27.

CYP1A1 = test: Immunoblot of CYP1A1 protein in Caco-2 cells; assay type: cell-based, human; details: two weeks treatment, varying concentrations
LFABP = test: Immunoblot of LFABP in Caco-2 cells; assay type: cell-based, human; details: two weeks treatment, varying concentrations
Source text: (§5) The homogenates were electrophoresed in polyacrylamide gels containing 0.1% SDS, and the separated proteins were electrophoretically transferred to nitrocellulose. Nonspecific binding sites were blocked using 0.3% Tween 20 and 5% nonfat dry milk (Carnation) in Tris buffered saline.
(§6) P-glycoprotein was detected using a polyclonal rabbit antibody (Oncogene Science), and villin was detected using a mouse monoclonal antibody (Chemicon International).
(§7) Secondary antibodies of appropriate specificities conjugated with horseradish peroxidase were obtained commercially (rabbit anti-mouse IgG and goat anti-rabbit IgG/A/M from Zymed and mouse anti-goat IgG/A/M from Pierce). Binding of secondary antibodies was detected using the enhanced chemiluminescence (ECL™) reagents and film from Amersham.
(§8) Cell homogenates were then prepared as described above and immunoblots were performed; the Caco-2 protein loads were as follows: 10 ,μg for CYP3A, CYP3A5, P-glycoprotein, villin; 25 pg for CYP1A1, CYP2D6; 40 μg for IFABP, LFABP; 80 μg for NADPH cytochrome P450 reductase, cytochrome b5 (the villin, IFABP, and LFABP served as control proteins).

CYP3A5 = test: Immunoblot of CYP3A5 protein in Caco-2 cells; assay type: cell-based, human; details: two weeks treatment, varying concentrations
Method: CYP3A5 was detected using an immunoadsorbed polyclonal rabbit antibody obtained from Dr. Steven A. Wrighton (Eli Lilly). The antibody may be generated by injecting rabbits subcutaneously with 100 μg of P450IIIA5 in 0.75 mL of phosphate-buffered saline in an emulsion made with 1.25 mL of Freund's complete adjuvant. Four weeks later, 50 μg of P450IIIA5 (in the same preparation) is injected. Finally, eight weeks from the initial injection, 50 μg of […] in 300 μL of phosphate-buffered saline is injected intravenously into the rabbits' ear vein. Serum was obtained 10 weeks following the initial immunization and weekly thereafter. The IgG fraction was then isolated and antibodies specific to CYP3A5 were isolated by adsorption of contaminating antibodies to sepharose-bound CYP3A4 [S. A. Wrighton et al., Mol. Pharmacol. 38:207-213 (1990).

[2] = tested on: CYP3A3 mRNA (Caco-2 cells); test: RT-PCR of CYP3A3 mRNA in treated Caco-2 cells; assay type: cell-based, human; details: treated or untreated Caco-2 cells
Source text: Primer sequences for amplification of CYP3A3, CYP3A4, CYP3A5, and
These are the same primer sequences previously used by J. C. Kolars et al. [Pharmacogenetics 4:247-259 (1994)], except that a different antisense primer (SEQ ID NO:9) was used for CYP3A5, and the first sense primer for CYP3A3 was paired with the second antisense primer used by Kolars et al. (i.e., in the present invention, SEQ ID NO:1 was paired with SEQ ID NO:2).

P-glycoprotein = test: Immunoblot of P-glycoprotein in Caco-2 cells; assay type: cell-based, human
Source text: as §5, §6, §7, §8

CYP3A (Caco-2 cells) [3] = test: Immunoblot of CYP3A immunoreactive protein in treated Caco-2 cells; details: for CYP3A4 expression at the highest concentrations used: FIGS. 2C and 3
Method: The medium was aspirated and the inserts were washed three times with Hanks' BSS containing 15 mM HEPES. Cells grown on Matrigel- (or Growth Factor Reduced Matrigel-) coated inserts were removed from the membranes using Dispase according to the manufacturer's protocol. Thereafter, 5 mM EDTA in normal saline containing 1 mM PMSF and 1 mM benzamidine was added to inhibit further digestion. The cell suspension was transferred to a microcentrifuge tube and pelleted by centrifugation at 325 g. The pellets were washed three times with Hanks' BSS containing 15 mM HEPES, 1 mM PMSF, and 1 mM benzamidine. The final pellet was resuspended in a solution of 20% v/v glycerol, 100 mM Tris HCl (pH 7.4), 10 mM EDTA, 1 mM dithiothreitol, I mM PMSF, 1 mM benzamidine, and 100 μg/mL aprotinin and homogenized in a conical ground glass tissue grinder with 20 passes of a ground glass pestle. The homogenate was subjected to 10 seconds of sonication and was then kept at -80° C. until analysis.
Cells grown on uncoated inserts or inserts coated with non-Matrigel matrices were harvested by scraping into Hanks' BSS containing HEPES and protease inhibitors, washed three times, and then homogenized, sonicated, and frozen as described above.
as §5
CYP1A1 was detected using a polyclonal goat antibody (Gentest) developed against rat CYP1A1 and CYP1A2. […] CYP3A proteins were detected using a mouse monoclonal antibody ("13-7-10") obtained from Dr. Pierre Kremers (Universite de Liege, Liege, Belgium). […] This antibody detects all known forms of human CYP3A.
as §7
In some cases, immunoblot protein concentrations were determined by computer-aided densitometry. When this procedure was conducted, optical densities were performed on a Macintosh (Apple) computer using the publicly available NIH Image program (developed at the U.S. National Institutes of Health and available on the Internet at http://rsb.info.nih.gov/nih-image/). Individual exposures were scanned into binary images with a ScanJetIIc color scanner (Hewlett-Packard). An optical density-concentration standard curve was prepared using the bands from second loaded serial dilutions of purified CYP3A4 protein, and the optical densities of unknowns were converted to quantitative numbers by comparison to this curve. This allowed for correction of the nonlinearity of ECL light output and ECL Hyperfilm.

[4] = tested on: CYP3A5 mRNA (Caco-2 cells); test: RT-PCR of CYP3A5 mRNA in treated Caco-2 cells; details: 0.05-1.0 μM, two weeks
Method: as §1, §2, §3, §4

[5] = tested on: NADPH cytochrome P450 reductase; test: Immunoblot of NADPH cytochrome P450 reductase in Caco-2 cells; details: for concentrations at which NADPH cytochrome P450 reductase level increased: two weeks treatment
Source text: as §5, §7, §8
(§9) At that time, the medium was replaced with medium without vitamin D (except that contributed by the 5% FBS. Total RNA was then prepared as described above and subjected to RT-PCR using synthetic oligonucleotide primer pairs designed to selectively amplify fragments of the CYP3A4 and villin cDNAs (see Table 3). The numbers of PCR cycles were as follows: CYP3A4, 36; and villin, 27. Moreover, immunoblots were performed as described above for CYP3A, NADPH cytochrome P450 reductase, P-glycoprotein, and villin. The protein loads used for the immunoblot procedures were as follows: 5 μg for CYP3A, P-glycoprotein, villin; and 40 ,μg for NADPH cytochrome P450 reductase.

CYP3A (Caco-2 cells) [6] = tested on: CYP3A (Caco-2 cells)
Method: At the end of that period, the medium was replaced with medium not containing vitamin D (except that contributed by the 5% FBS). […] After 6 hours, the apical and basolateral media were removed separately and analyzed for 1'-OH-MDZ concentration.
As previously indicated, the medium was aspirated and the inserts were washed three times with Hanks'BSS. […] After 6 hours, the amount of 1'-OH-MDZ was measured in the combined luminal plus basolateral medium from each culture and the rate of formation calculated.
For the experiments of this example, all cells (Caco-2 cell clones and the parent cell line) were grown on Matrigel-coated teflon culture inserts. […] At the end of this period, the medium was replaced with medium not containing vitamin D (except that contributed by the 5% FBS). Next, MDZ (4 μM) was added to the apical compartment. […] Catalytic activity and levels of protein expression were determined as previously described.
Catalytic activity and levels of protein expression were determined as previously described.

villin = test: Immunoblot of villin in Caco-2 cells; assay type: cell-based, human; details: for villin expression at the highest concentrations used: FIG. 3
Source text: as §5, §6, §7, §8

CYP2D6 = details: two weeks treatment, varying concentrations
Source text: as §5
CYP2D6 was detected using a polyclonal rabbit antibody developed against unique antigenic peptides and was obtained from Dr. Alastair Cribb (Merck Research Laboratories, West Point, Pa.).
as §7

[7] = tested on: CYP3A4 mRNA (Caco-2 cells)
Method: Harvesting for mRNA Analyses and RNA Isolation
The medium was aspirated and the culture inserts were washed three times with Hanks' BSS containing 15 mM HEPES. […] After 5 minutes, the cell lysate was transferred to a microcentrifuge tube and kept at -80° C. pending further processing. At a later time, the lysate was thawed quickly at 65° C., and total RNA was isolated according to the protocol of P. Chomczynski and N. Sacchi. Briefly, extraction was performed using the denaturing solution, 2M sodium acetate (pH 4), phenol, and chloroform (1:0.1:1:0.2). Next, precipitation was effected with 2 volumes of ethanol. Resolubilization and reprecipitation was then performed using the denaturing solution and 2 volumes of ethanol. […] The reagent volumes were adjusted proportionately as appropriate for the initial lysate volume.
as §1
Each thermal cycle consisted of 95° C. for 1 min, then 65° C. for 1 min 15 sec; after completing all cycles, a 10 min extension step at 65° C. was performed. The number of cycles performed in each PCR reaction is set forth below in the Examples.
as §3
An internal standard for quantitative competitive PCR of CYP3A4 cDNA was prepared by inserting a 30 base pair segment into the cDNA sequence to be amplified. PCR reaction mixtures were prepared by combining serial dilutions of a known amount of the standard cDNA and constant amounts of the unknown cDNA. The two cDNAs were amplified together and the products were separated on agarose gels. After staining with ethidium bromide, the two bands were quantitated densitometrically. An equivalence point (at which the densities of the standard and unknown bands are of equal optical density) was determined; the concentration of the unknown is equal to that of the standard at the point of equivalence.
The cells from all experiments were maintained in their respective differentiation media for two weeks post-confluence. Thereafter, the cells were used for midazolam metabolism studies and/or harvested for analysis of protein or mRNA (described below).
as §4, §9

cytochrome b5 = test: Immunoblot of cytochrome b5 in Caco-2 cells; assay type: cell-based, human; details: two weeks treatment, varying concentrations
Source text: as §5, §7, §8

IFABP = test: Immunoblot of IFABP in Caco-2 cells; assay type: cell-based, human; details: two weeks treatment, varying concentrations
Source text: as §5, §6, §7, §8

Caco-2 cells [8] = test: Apical/basolateral distribution of midazolam and metabolite across Caco-2 monolayers; details: every time point, also after basolateral MDZ
Source text: At the end of this period, the medium was replaced with medium not containing vitamin D (except that contributed by the 5% FBS).

CYP3A (Caco-2 cells) [9] = biological target: CYP3A (Caco-2 cells) (Homo sapiens, UniProt P08684); details: serum-free; 4 μM MDZ apical, 6.5 h; FIG. 9
Chain of CYP3A (Caco-2 cells) (Homo sapiens, UniProt P08684) (P08684 2-503): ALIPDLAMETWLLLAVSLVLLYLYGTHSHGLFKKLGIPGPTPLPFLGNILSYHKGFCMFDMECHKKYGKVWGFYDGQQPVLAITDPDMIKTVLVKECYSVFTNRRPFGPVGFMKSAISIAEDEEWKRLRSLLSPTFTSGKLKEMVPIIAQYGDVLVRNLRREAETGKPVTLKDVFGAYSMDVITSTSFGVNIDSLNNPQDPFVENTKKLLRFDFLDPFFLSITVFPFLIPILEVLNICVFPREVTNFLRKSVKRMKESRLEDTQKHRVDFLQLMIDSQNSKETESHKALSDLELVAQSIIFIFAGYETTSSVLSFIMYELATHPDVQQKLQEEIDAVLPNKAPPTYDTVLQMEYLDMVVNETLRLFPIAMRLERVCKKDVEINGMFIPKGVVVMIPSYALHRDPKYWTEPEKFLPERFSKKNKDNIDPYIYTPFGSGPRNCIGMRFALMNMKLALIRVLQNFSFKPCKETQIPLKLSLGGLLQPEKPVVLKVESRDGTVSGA
Method: Standards were also prepared in duplicate. Known amounts of MDZ and 1'-OH-MDZ (1-50 ng) were combined with 100 mM potassium phosphate buffer, pH 7.4.
Unknowns and standards were extracted with 5 mL ethyl acetate and the upper organic layer transferred to clean tubes. The solvent was evaporated to dryness under a stream of nitrogen. The remaining solvent was reconstituted in 100 μL derivatizing reagent (10% N-methyl-N-(t-butyldimethylsilyl)trifluoroacetamide in acetonitrile).
At the end of this period, the medium was replaced with medium not containing vitamin D (except that contributed by the 5% FBS). Next, 4 μM MDZ was added to the apical (luminal) or basolateral (serosal) medium of the cells.
Parent drug and metabolite concentrations measured at 1 and 2 hours after MDZ administration were used for computation. The amount of 1'-OH-MDZ formed during this interval was determined as the sum of metabolite in the apical and basolateral compartments at 2 hours minus the total amount measured at 1 hour.
Because the incubation medium contained significant amounts of FBS, the fraction of MDZ bound to culture medium proteins was measured by equilibrium dialysis. […] The unbound concentration of MDZ in the apical and basolateral compartments during cell culture was calculated as the product of the experimentally determined MDZ-free fraction and total MDZ concentration. Since MDZ concentrations in the apical and basolateral compartments were not at equilibrium during the 1-2 hour MDZ incubation interval, the intracellular reaction was assumed to be driven by a MDZ concentration that was more closely aligned with the concentration in the basolateral compartment.
At the end of this period, the medium was replaced with medium containing neither serum nor vitamin D. Next, MDZ (4 μM) was added to the apical compartment.

Caco-2 cells [10] = test: Glucuronidation of 1'-OH-MDZ in Caco-2 cells; details: 2-24 h with 4 μM MDZ; β-glucuronidase
Method: The experiments of this example assess whether glucuronidation occurs in the culture system of the present invention. […] Each of a complete set of parallel 0.5 mL samples was diluted to a volume of 1 mL and spiked with 20 ng 1'-[^2 H2 ],1'-OH-MDZ (no glucuronidase treatment).

Caco-2 cells [11] = details: cited from earlier work
[12] = two weeks treatment from confluence, 4 μM MDZ apical, 6 h, FIG. 2A

C=C1/C(=C\C=C2/CCC[C@]3(C)[C@@H]([C@H](C)CCCC(C)(C)O)CC[C@@H]23)C[C@@H](O)C[C@@H]1O [1α,25-(OH)2 -D3, 1α,25-dihydroxyvitamin D3]
CYP3A7 mRNA expression [1]: appeared to increase in response to 1α,25-(OH)2 -D3, but to a much lesser degree
level of CYP1A1 protein (CYP1A1): did not appear to change
level of LFABP protein (LFABP): Neither of the FABPs showed changes in levels of expression
level of CYP3A5 protein (CYP3A5): little change
CYP3A3 mRNA [2]: not detected
exposure time until P-glycoprotein increased (P-glycoprotein; 0.25 μM, FIG. 5A): about 72 hours
CYP3A immunoreactive protein, clones and parent line (CYP3A (Caco-2 cells) [3]; 0.25 μM two weeks, all five clones and parent): increased levels of CYP3A immunoreactive protein
exposure time until increased CYP3A protein was evident (CYP3A (Caco-2 cells) [3]; 0.25 μM, FIG. 5A): 18 h
CYP3A content by densitometry (CYP3A (Caco-2 cells) [3]; 0.5 μM, untreated 7.9): 20.6 pmol CYP3A/mg of total protein
CYP3A expression in response to 1α,25-(OH)2 -D3 on Matrigel (CYP3A (Caco-2 cells) [3]; M+, D+, 0.25 μM): clearly enhanced when the Caco-2 cells were grown on Matrigel
CYP3A4 expression at the highest concentrations used (CYP3A (Caco-2 cells) [3]): lower levels of expression
concentration at which increase in CYP3A immunoreactive protein was evident / began (CYP3A (Caco-2 cells) [3]; two weeks treatment, FIG. 2C): 50 nM
CYP3A5 mRNA expression [4]: appeared to increase in response to 1α,25-(OH)2 -D3, but to a much lesser degree
NADPH cytochrome P450 reductase expression among clones and parent line ([5]; 0.25 μM two weeks): variable responsiveness
exposure time until NADPH cytochrome P450 reductase increased ([5]; 0.25 μM, FIG. 5A): 168 h
concentrations at which NADPH cytochrome P450 reductase level increased [5]: ≥ 50 nM
CYP3A catalytic activity, clones and parent line (CYP3A (Caco-2 cells) [6]; 0.25 μM two weeks, clones 4-8 and parent, untreated below limits of quantitation): demonstrably greater catalytic activity than the untreated cells
exposure time until midazolam metabolism first detectable (CYP3A (Caco-2 cells) [6]; 0.25 μM, 4 μM MDZ apical, 6 h, FIG. 5B): 12 h
difference in CYP3A catalytic activity among culture media (CYP3A (Caco-2 cells) [6]; 5% FBS media with 0.25 μM 1α,25-(OH)2 -D3): less than 4 fold
CYP3A protein and catalytic activity without Matrigel (CYP3A (Caco-2 cells) [6]; M-, D+, 0.25 μM): increased CYP3A protein and catalytic activity in the absence of Matrigel
extent of midazolam metabolism (CYP3A (Caco-2 cells) [6]; apical concentrations, FIG. 2A): dramatic increase in the extent of midazolam metabolism
correlation (R) of midazolam 1'-hydroxylation activity with CYP3A immunoreactive protein (CYP3A (Caco-2 cells) [6]; clones and parent with and without treatment, p=0.0003): 0.987
concentration at which increase in CYP3A catalytic activity was evident / began (CYP3A (Caco-2 cells) [6]; [12]): 50 nM
villin expression at the highest concentrations used (villin): lower levels of expression
level of CYP2D6 protein (CYP2D6): did not appear to change
exposure time at which CYP3A4 mRNA appeared to plateau ([7]; 0.25 μM, FIG. 5A): 120 h
exposure time until increase in CYP3A4 mRNA was evident ([7]; 0.25 μM, FIG. 5A): 3 to 4 h
CYP3A4 mRNA expression, dose-response ([7]; 0.05-1.00 μM, two weeks from confluence): increased CYP3A4 mRNA expression at all concentrations used
expression of CYP3A4 mRNA ([7]; added to differentiation medium (0.63 μM), two weeks post-confluence, Matrigel-coated Millicell CM inserts): dramatic increase in the expression of CYP3A4 mRNA

C=C1CC[C@H](O)C/C1=C/C=C1\CCC[C@]2(C)[C@@H]([C@H](C)CCCC(C)(C)O)CC[C@@H]12 [25-(OH)-D3, 25-hydroxyvitamin D3]
level of cytochrome b5 immunoreactive protein (cytochrome b5): did not appear to change
level of CYP1A1 protein (CYP1A1): did not appear to change
level of IFABP protein (IFABP): Neither of the FABPs showed changes in levels of expression
level of LFABP protein (LFABP): Neither of the FABPs showed changes in levels of expression
level of CYP3A5 protein (CYP3A5): little change
concentrations at which immunoreactive P-glycoprotein increased (P-glycoprotein; two weeks treatment): ≥ 2.5 µM
CYP3A4 expression at the highest concentrations used (CYP3A (Caco-2 cells) [3]): lower levels of expression
concentration at which CYP3A immunoreactive protein plateaued (CYP3A (Caco-2 cells) [3]; two weeks treatment, FIG. 2C): > 1000 nM
concentration at which increase in CYP3A immunoreactive protein was evident / began (CYP3A (Caco-2 cells) [3]; two weeks treatment, FIG. 2C): 250 nM
concentrations at which NADPH cytochrome P450 reductase level increased [5]: ≥ 500 nM
CYP3A catalytic activity at 15 μM (CYP3A (Caco-2 cells) [6]; 15 μM, relative to maximum at 5 μM, FIG. 2B): substantially declined
CYP3A catalytic activity at 20 μM (CYP3A (Caco-2 cells) [6]; 20 μM, FIG. 2B): declining still further
maximal CYP3A catalytic activity achieved (CYP3A (Caco-2 cells) [6]; relative to 1α,25-(OH)2 -D3): not as great as that achieved with 1α,25-(OH)2 -D3
concentration at which increase in CYP3A catalytic activity was evident / began (CYP3A (Caco-2 cells) [6]; [12]): 250 nM
concentration at which CYP3A catalytic activity plateaued (CYP3A (Caco-2 cells) [6]; two weeks treatment from confluence, FIG. 2A): > 1000 nM
concentration of maximal CYP3A catalytic activity (CYP3A (Caco-2 cells) [6]; two weeks treatment, FIG. 2B): 5000 nM
level of villin immunoreactive protein (villin; concentrations ≥10 μM, two weeks, not shown): decrease slightly
villin expression at the highest concentrations used (villin): lower levels of expression
level of CYP2D6 protein (CYP2D6): did not appear to change

OCc1ncc2n1-c1ccc(Cl)cc1C(c1ccccc1F)=NC2 [1'-OH-MDZ, 1'-hydroxymidazolam]
1'-OH-MDZ concentration, apical vs basolateral (Caco-2 cells [8]): greater in the apical medium than in the basolateral medium
rate of 1'-OH-MDZ formation under serum-free incubation (CYP3A (Caco-2 cells) [9]): decreased compared to that measured in the presence of serum
rate of 1'-OH-MDZ formation, luminal vs basolateral medium (CYP3A (Caco-2 cells) [9]): greater in the luminal medium than in the basolateral medium
glucuronidation of 1'-OH-MDZ (Caco-2 cells [10]): had not occurred

C=C1CC[C@H](O)C/C1=C/C=C1\CCC[C@]2(C)[C@@H]([C@H](C)CCCC(C)C)CC[C@@H]12 [D3, cholecalciferol]
Caco-2 cell growth (Caco-2 cells [11]; Giuliano et al.): decrease in cell growth
Caco-2 cell proliferation (Caco-2 cells [11]; Halline et al.): dose-dependent inhibition of cell proliferation
effect on immunoreactive CYP3A protein (CYP3A (Caco-2 cells) [3]; up to 1.0 μM, two weeks): no effect
effect on midazolam metabolism (CYP3A (Caco-2 cells) [6]; up to 1.0 μM, two weeks): no effect

NCC(=O)CCC(=O)O [delta-aminolevulinic acid]
enhancement of CYP3A4 mRNA expression [7]: did not appear to enhance CYP3A4 mRNA expression

CC1(S(=O)(=O)O)CC(=O)c2ccccc2C1=O (stereo not shown) [vitamin K, menadione sodium bisulfite]
enhancement of CYP3A4 mRNA expression [7]: did not appear to enhance CYP3A4 mRNA expression

CCCC(=O)[O-].[Na+] [sodium butyrate]
enhancement of CYP3A4 mRNA expression [7]: did not appear to enhance CYP3A4 mRNA expression

CC(=O)OC/C=C(C)/C=C/C=C(C)/C=C/C1=C(C)CCCC1(C)C [Vitamin A, retinol acetate]
enhancement of CYP3A4 mRNA expression [7]: did not appear to enhance CYP3A4 mRNA expression

C=C1CC[C@H](O)C/C1=C/C=C1\CCC[C@]2(C)[C@@H]([C@H](C)/C=C/[C@H](C)C(C)C)CC[C@@H]12 [vitamin D2, ergocalciferol]
enhancement of CYP3A4 mRNA expression [7]: did not appear to enhance CYP3A4 mRNA expression
